Test results taken from PMC5554444 (Cancer prevention research (Philadelphia, Pa.), 2011).
Where “and” joins values, the source holds several entries; their conditions need not be identical. Equal entries are not always repeated. Blank lines part the entries; values can stand above or below the molecule they belong to.

Columns and labels:
[1] = tested on: MCF7 cells; assay: RT2 Profiler PCR array of 84 human cell cycle genes; assay type: cell-based
[2] = tested on: MCF7 breast cancer cells; assay: SRB assay, anti-proliferative potential; assay type: cell-based; settings: Homo sapiens, MCF7, 72 h, read-out: SRB assay IC50
[3] = tested on: MCF7 cells; assay: Western blot of p53 and p21 protein; assay type: cell-based, human; settings: 1 μM, 8, 24 and 48 h
[4] = tested on: MCF7 cells; assay: Cell cycle distribution by NIM-DAPI flow cytometry; assay type: cell-based, human; settings: 2.5 μM
[5] = tested on: Caco-2 cell monolayer; assay: Caco-2 cell monolayer permeability; assay type: in vitro ADME; settings: Caco-2
[6] = Caco-2 cell monolayer permeability; assay type: in vitro ADME; settings: human, Caco-2, pH 7.4
[7] = target: T1, human RXRα (Homo sapiens, UniProt P19793); settings: COS-1 cells, 24 h
T1 sequence (P19793 1-462): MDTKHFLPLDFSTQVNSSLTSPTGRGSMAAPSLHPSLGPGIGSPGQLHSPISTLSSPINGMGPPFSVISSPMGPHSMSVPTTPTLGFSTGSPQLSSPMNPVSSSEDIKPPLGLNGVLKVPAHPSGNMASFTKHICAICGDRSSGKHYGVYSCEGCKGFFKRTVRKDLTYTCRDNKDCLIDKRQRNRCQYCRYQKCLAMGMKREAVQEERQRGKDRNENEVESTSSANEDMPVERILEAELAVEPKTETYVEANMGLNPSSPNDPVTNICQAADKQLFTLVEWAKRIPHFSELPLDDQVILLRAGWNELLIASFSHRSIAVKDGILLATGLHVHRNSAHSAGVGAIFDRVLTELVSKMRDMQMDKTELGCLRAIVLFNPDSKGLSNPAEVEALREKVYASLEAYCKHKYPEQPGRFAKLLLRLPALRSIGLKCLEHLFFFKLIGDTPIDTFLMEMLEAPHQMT

[8] = Absorption and distribution in rats after gavage; assay type: in vivo, rat; settings: 40 mg/kg by gavage, 3 h after first treatment, individual rats; listed as AM6-36
[9] = tested on: MNU-induced mammary tumors; assay: MNU-induced mammary tumor growth in Sprague-Dawley rats; assay type: in vivo, rat; settings: 10 mg/kg BW/day, six weeks, 10 rats/group, p = 0.1 Mann-Whitney
[10] = tested on: HL-60 cells; assay: Expression of cell surface marker CD38 by flow cytometry; assay type: cell-based, human

SMILES: C=C(c1ccc(C(=O)O)cc1)c1cc2c(cc1C)C(C)(C)CCC2(C)C [Bexarotene, reference compound]
Number of genes out of 84 with significantly altered expression ([1]; 24 h, AM6-36 1 μM, bexarotene 100 μM, P <0.05): 9

SMILES: CC[C@@]1(O)C(=O)OCc2c1cc1n(c2=O)Cc2cc3ccccc3nc2-1 [Camptothecin]
IC50 [2]: 1.41 nM

Papp AP to BL, times slower than propranolol [5]: 10 fold
Papp A→B at 5 µM [6]: 2.75 ± 0.78 ×10⁻⁶ cm/s
Papp A→B at 10 µM [6]: 5.52 ± 0.29 ×10⁻⁶ cm/s
Papp A→B at 25 µM [6]: 4.45 ± 0.71 ×10⁻⁶ cm/s
Papp B→A at 5 µM [6]: 3.95 ± 0.11 ×10⁻⁶ cm/s
Papp B→A at 10 µM [6]: 3.25 ± 0.71 ×10⁻⁶ cm/s
Papp B→A at 25 µM [6]: 8.26 ± 0.93 ×10⁻⁶ cm/s
Relative luciferase activity induction ([7]; 20 μM): 133.2 fold
RXRE assay, fold increase of relative luciferase activity over vehicle ([7]; 40 μM): 5.49±0.34 fold
SMILES: Cl.Cl.NCCCn1c2c(c3ccc(N)cc3c1=O)C(=O)c1ccccc1-2 [Compound 3, 3-amino-6-(3-aminopropyl)-5,6-dihydro-5,11-dioxo-11H-indeno[1,2-c]isoquinoline dihydrochloride]
p21 protein expression [3]: moderate increase at 8 h, and incremental expression was observed at 24 and 48 h
p53 protein level [3]: increase of p53 at 8 h, followed by decreases at 24 and 48 h
Cell cycle distribution [4]: S phase arrest
Up-regulation of CDKN1A expression ([1]; DNA microarray analysis): 35 fold
Serum 1-day [8]: 0.84 ± 0.01 μg/ml and 2.14 μM and 0.82 ± 0.004 μg/ml and 2.09 μM
Growth of MNU-induced mammary tumors [9]: clearly attenuated tumor growth

SMILES: CC1=C(/C=C/C(C)=C\C=C\C(C)=C\C(=O)O)C(C)(C)CCC1 [Compound 9-cis-RA, 9-cis-Retinoic acid]
FL-1 positive cells (CD38) ([10]; HL-60 cells, 2 nM): 86.7%
CD38-expressing cell population (FL-1 positive) ([10]; HL-60 cells, 2000, 200, 20 nM): about 95%
